The values below come from ChEMBL document CHEMBL1130962, “Selective alpha-1a adrenergic receptor antagonists. Effects of pharmacophore regio- and stereochemistry on potency and selectivity” (Bioorg Med Chem Lett, 1998).

Assay [1] has as its target T1, Alpha-1D adrenergic receptor (Homo sapiens, UniProt P25100).
T1 sequence (P25100 whole entry): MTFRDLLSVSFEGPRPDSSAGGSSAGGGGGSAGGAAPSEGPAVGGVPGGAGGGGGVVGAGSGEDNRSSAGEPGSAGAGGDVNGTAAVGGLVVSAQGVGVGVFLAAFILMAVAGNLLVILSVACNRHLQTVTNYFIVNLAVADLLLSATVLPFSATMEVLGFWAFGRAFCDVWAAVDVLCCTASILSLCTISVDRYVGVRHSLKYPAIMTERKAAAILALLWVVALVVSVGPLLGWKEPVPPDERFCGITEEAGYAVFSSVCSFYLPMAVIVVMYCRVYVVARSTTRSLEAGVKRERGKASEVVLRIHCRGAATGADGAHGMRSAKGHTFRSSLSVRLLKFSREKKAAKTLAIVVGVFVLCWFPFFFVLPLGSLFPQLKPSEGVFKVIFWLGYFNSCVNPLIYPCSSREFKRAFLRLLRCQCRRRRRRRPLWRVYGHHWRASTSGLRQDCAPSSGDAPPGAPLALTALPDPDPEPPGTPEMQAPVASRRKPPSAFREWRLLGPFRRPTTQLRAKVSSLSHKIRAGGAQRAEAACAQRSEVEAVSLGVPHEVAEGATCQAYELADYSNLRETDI
The assay is described as follows: Binding affinity against human Alpha-1d adrenergic receptor was evaluated by cloned receptor binding assay.

Assay [2] deals with T2, Alpha-1A adrenergic receptor (Homo sapiens, UniProt P35348).
T2 sequence (P35348 whole entry): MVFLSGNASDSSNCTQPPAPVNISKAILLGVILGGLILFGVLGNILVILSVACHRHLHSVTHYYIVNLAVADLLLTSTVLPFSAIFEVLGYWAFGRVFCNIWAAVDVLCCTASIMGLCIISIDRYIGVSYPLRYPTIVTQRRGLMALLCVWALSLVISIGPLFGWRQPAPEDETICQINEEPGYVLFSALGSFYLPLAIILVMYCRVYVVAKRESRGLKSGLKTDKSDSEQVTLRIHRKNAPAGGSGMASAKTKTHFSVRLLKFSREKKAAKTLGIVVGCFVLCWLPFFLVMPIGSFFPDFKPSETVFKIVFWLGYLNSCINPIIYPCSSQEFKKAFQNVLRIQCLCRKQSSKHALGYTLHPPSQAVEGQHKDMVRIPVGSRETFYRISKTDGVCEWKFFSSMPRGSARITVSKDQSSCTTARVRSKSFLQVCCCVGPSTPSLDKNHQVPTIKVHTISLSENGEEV
The assay is described as follows: Binding affinity against human Alpha-1a adrenergic receptor was evaluated by cloned receptor binding assay.

Assay [3] has as its target T3, Alpha-1B adrenergic receptor (Homo sapiens, UniProt P35368).
T3 sequence (P35368 whole entry): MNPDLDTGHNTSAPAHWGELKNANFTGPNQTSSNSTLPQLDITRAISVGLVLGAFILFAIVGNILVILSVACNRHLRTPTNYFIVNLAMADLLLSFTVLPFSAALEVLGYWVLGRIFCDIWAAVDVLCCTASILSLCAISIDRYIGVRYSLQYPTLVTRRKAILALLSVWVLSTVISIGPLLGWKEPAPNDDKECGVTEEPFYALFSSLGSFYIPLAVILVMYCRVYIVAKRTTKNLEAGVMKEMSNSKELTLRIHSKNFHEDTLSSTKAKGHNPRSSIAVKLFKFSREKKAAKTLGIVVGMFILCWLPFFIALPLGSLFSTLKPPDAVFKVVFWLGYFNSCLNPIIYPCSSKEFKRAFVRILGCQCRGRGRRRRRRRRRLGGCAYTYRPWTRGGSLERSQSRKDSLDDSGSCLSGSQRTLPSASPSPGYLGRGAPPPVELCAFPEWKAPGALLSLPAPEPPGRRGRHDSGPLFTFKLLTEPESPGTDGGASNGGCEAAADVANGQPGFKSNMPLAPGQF
The experiment in a line: Binding affinity against human Alpha-1b adrenergic receptor was evaluated by cloned receptor binding assay.

The next assay concerns the target Mu-type opioid receptor (Mus musculus, UniProt P42866). The experiment in a line: Opioid binding affinity was evaluated using [3H]DAMGO as radioligand.

The structures appear in SMILES notation.

Mu-type opioid receptor, sequence (P42866 whole entry): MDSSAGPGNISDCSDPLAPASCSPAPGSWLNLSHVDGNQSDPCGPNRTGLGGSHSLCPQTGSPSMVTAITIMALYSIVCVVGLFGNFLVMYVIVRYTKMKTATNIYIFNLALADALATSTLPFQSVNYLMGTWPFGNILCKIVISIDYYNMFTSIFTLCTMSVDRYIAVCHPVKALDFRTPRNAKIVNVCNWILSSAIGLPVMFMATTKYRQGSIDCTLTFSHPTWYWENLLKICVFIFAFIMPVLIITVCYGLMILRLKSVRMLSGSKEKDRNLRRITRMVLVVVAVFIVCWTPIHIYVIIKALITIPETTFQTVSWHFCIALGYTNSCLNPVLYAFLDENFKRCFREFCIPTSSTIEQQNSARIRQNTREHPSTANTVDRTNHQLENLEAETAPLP

Take `CCOC(=O)[C@H]1CN(CCCCN2C(=O)c3cc(Cl)ccc3S2(=O)=O)CC[C@@H]1c1ccccc1` (racemic): the Ki in assay [1] worked out at 320 nM; in assay [2], 100 nM; in assay [3], 1400 nM.

Consider `CCOC(=O)[C@@H]1CNCC[C@@H]1c1ccccc1`, for which the affinity on Mu-type opioid receptor corresponds to a Ki of 7600 nM.

On Mu-type opioid receptor, `CCOC(=O)[C@H]1CNCC[C@H]1c1ccccc1` registered a Ki of 12000 nM.

For `CCOC(=O)[C@H]1CN(CCCCN2C(=O)c3cc(Cl)ccc3S2(=O)=O)CC[C@H]1c1ccccc1`, the Ki is 1100 nM in assay [1], 98 nM in assay [2] and above 2000 nM in assay [3].

With `CCOC(=O)[C@@H]1CN(CCCCN2C(=O)c3cc(Cl)ccc3S2(=O)=O)CC[C@@H]1c1ccccc1`, the Ki in assay [1] is 480 nM; in assay [2], 0.51 nM; in assay [3] it was 170 nM.

`CCOC(=O)C1CNCCC1c1ccccc1` (racemic) displayed an inhibition constant (Ki) at Mu-type opioid receptor of 24000 nM.

Consider `CCOC(=O)C1CN(CCCCN2C(=O)c3cc(Cl)ccc3S2(=O)=O)CCC1c1ccccc1` (racemic), for which the Ki in assay [1] was 1800 nM; in assay [2], 3 nM; in assay [3] it was 940 nM.

Regarding `O=C1c2ccccc2S(=O)(=O)N1CCCCN1CCN(c2ncccn2)CC1` [IPSAPIRONE], the results for the Ki in assay [1], in assay [2] and in assay [3] were 46 nM, 87 nM and 220 nM, respectively.

In the case of `COC(=O)C1(c2ccccc2)CCN(CCCCN2C(=O)c3cc(Cl)ccc3S2(=O)=O)CC1`, the Ki in assay [1] was 2000 nM; in assay [2], 44 nM; in assay [3], 2200 nM.

A word on the Ki: it is a dissociation constant, usually derived from enzyme kinetics or from competition with a known ligand.
